Patent US9630965B2, “Fused amino pyridine as HSP90 inhibitors” (Curis, Inc., priority 2007, dated 2017)
pIC50: −log10 of the molar value.

Molecular target: HSP90 (Homo sapiens (Human), UniProt P07900)
Experiment: HSP90 competition binding (fluorescence polarization) assay with FITC labeled GM
Settings: 24 hours of incubation at 4° C.
Source text: (b) HSP90 Competition Binding (Fluorescence Polarization) Assay.
A fluorescein isothiocyanate (FITC) labeled GM was purchase from InvivoGen (ant-fgl-1). The interaction between HSP90 and labeled GM forms the basis for the fluorescence polarization assay. A free and fast-tumbling FITC labeled GM emits random light with respect to the plane of polarization plane of excited light, resulting in a lower polarization degree (mP) value. When GM is bound to HSP90, the complex tumble slower and the emitted light is polarized, resulting in a higher mP value. […] The assay buffer contained 20 mM HEPES (pH 7.3), 50 mM KCl, 1 mM DTT, 50 mM MgCl2, 20 mM Na2MoO4, 0.01% NP40 with 0.1 mg/ml bovine gamma-globulin.

SMILES	pIC50
C#CCCCn1c(Sc2ccc3c(c2)CCO3)nc2c(N)nccc21 [Compound 9, 2-(2,3-dihydrobenzofuran-5-ylthio)-1-(pent-4-ynyl)-1H-imidazo[4,5-c]pyridin-4-amine]	< 5.00
C#CCCCn1c(Sc2cc(O)c(O)cc2I)nc2c(N)nccc21 [Compound 16, 4-(4-amino-1-(pent-4-ynyl)-1H-imidazo[4,5-c]pyridin-2-ylthio)-5-iodobenzene-1,2-diol]	< 5.00
C#CCCCn1c(Sc2cc(OC)ccc2C#N)nc2c(N)nccc21 [Compound 18, 2-(4-amino-1-(pent-4-ynyl)-1H-imidazo[4,5-c]pyridin-2-ylthio)-4-methoxybenzonitrile]	5.00 to 6.00
C#CCCCn1c(Sc2cc(F)c(F)cc2I)nc2c(N)nccc21 [Compound 21, 2-(4,5-difluoro-2-iodophenylthio)-1-(pent-4-ynyl)-1H-imidazo[4,5-c]pyridin-4-amine]	< 5.00
C#CCCn1c(Sc2cc3c(cc2Br)OCO3)nc2c(N)nccc21 [Compound 22, 2-(6-bromobenzo[d][1,3]dioxol-5-ylthio)-1-(but-3-ynyl)-1H-imidazo[4,5-c]pyridin-4-amine]	5.00 to 6.00
C#CCCCCn1c(Sc2cc3c(cc2Br)OCO3)nc2c(N)nccc21 [Compound 24, 2-(6-bromobenzo[d][1,3]dioxol-5-ylthio)-1-(hex-5-ynyl)-1H-imidazo[4,5-c]pyridin-4-amine]	5.00 to 6.00
COc1ccc(I)c(Sc2nc3c(N)nccc3n2CCCC#N)c1 [Compound 26, 4-(4-amino-2-(2-iodo-5-methoxyphenylthio)-1H-imidazo[4,5-c]pyridin-1-yl)butanenitrile]	5.00 to 6.00
N#CCCCn1c(Sc2cc3c(cc2Br)OCO3)nc2c(N)nccc21 [Compound 27, 4-(4-amino-2-(6-bromobenzo[d][1,3]dioxol-5-ylthio)-1H-imidazo[4,5-c]pyridin-1-yl)butanenitrile]	5.00 to 6.00
N#CCCCCn1c(Sc2cc3c(cc2Br)OCO3)nc2c(N)nccc21 [Compound 29, 5-(4-amino-2-(6-bromobenzo[d][1,3]dioxol-5-ylthio)-1H-imidazo[4,5-c]pyridin-1-yl)pentanenitrile]	5.00 to 6.00
CC(C)NCCCn1c(Sc2cc3c(cc2Br)OCO3)nc2c(N)nccc21 [Compound 51, 2-(6-bromobenzo[d][1,3]dioxol-5-ylthio)-1-(3-(isopropylamino)propyl)-1H-imidazo[4,5-c]pyridin-4-amine]	5.00 to 6.00
COc1ccc(Br)c(Sc2nc3c(N)nccc3n2CCCNC(C)C)c1 [Compound 53, 2-(2-bromo-5-methoxyphenylthio)-1-(3-(isopropylamino)propyl)-1H-imidazo[4,5-c]pyridin-4-amine]	5.00 to 6.00
COc1ccc(I)c(Sc2nc3c(N)nccc3n2CCCNC(C)C)c1 [Compound 54, 2-(2-iodo-5-methoxyphenylthio)-1-(3-(isopropylamino)propyl)-1H-imidazo[4,5-c]pyridin-4-amine]	5.00 to 6.00
COc1ccc(I)c(Sc2nc3c(N)nccc3n2CCOC(C)C)c1 [Compound 64, 2-(2-iodo-5-methoxyphenylthio)-1-(2-isopropoxyethyl)-1H-imidazo[4,5-c]pyridin-4-amine]	5.00 to 6.00
CC(=O)NCCn1c(Sc2cc3c(cc2I)OCO3)nc2c(N)nccc21 [Compound 72, N-(2-(4-amino-2-(6-iodobenzo[d][1,3]dioxol-5-ylthio)-1H-imidazo[4,5-c]pyridin-1-yl)ethyl)acetamide]	6.00 to 7.00
CC(=O)NCCCn1c(Sc2cc3c(cc2I)OCO3)nc2c(N)nccc21 [Compound 74, N-(3-(4-amino-2-(6-iodobenzo[d][1,3]dioxol-5-ylthio)-1H-imidazo[4,5-c]pyridin-1-yl)propyl)acetamide]	6.00 to 7.00

Continued, values first:

pIC50	SMILES
6.00 to 7.00	CCCCCn1c(Sc2cc3c(cc2I)OCO3)nc2c(N)nccc21 [Compound 4, 2-(6-iodobenzo[d][1,3]dioxol-5-ylthio)-1-pentyl-1H-imidazo[4,5-c]pyridin-4-amine]
6.00 to 7.00	C#CCCCn1c(Sc2cc3c(cc2I)OCCO3)nc2c(N)nccc21 [Compound 7, 2-(7-iodo-2,3-dihydrobenzo[b][1,4]dioxin-6-ylthio)-1-(pent-4-ynyl)-1H-imidazo[4,5-c]pyridin-4-amine]
6.00 to 7.00	C#CCCn1c(Sc2cc3c(cc2I)OCO3)nc2c(N)nccc21 [Compound 23, 1-(but-3-ynyl)-2-(6-iodobenzo[d][1,3]dioxol-5-ylthio)-1H-imidazo[4,5-c]pyridin-4-amine]
6.00 to 7.00	C#CCCCCn1c(Sc2cc3c(cc2I)OCO3)nc2c(N)nccc21 [Compound 25, 1-(hex-5-ynyl)-2-(6-iodobenzo[d][1,3]dioxol-5-ylthio)-1H-imidazo[4,5-c]pyridin-4-amine]
6.00 to 7.00	N#CCCCn1c(Sc2cc3c(cc2I)OCO3)nc2c(N)nccc21 [Compound 28, 4-(4-amino-2-(6-iodobenzo[d][1,3]dioxol-5-ylthio)-1H-imidazo[4,5-c]pyridin-1-yl)butanenitrile]
6.00 to 7.00	N#CCCCCn1c(Sc2cc3c(cc2I)OCO3)nc2c(N)nccc21 [Compound 30, 5-(4-amino-2-(6-iodobenzo[d][1,3]dioxol-5-ylthio)-1H-imidazo[4,5-c]pyridin-1-yl)pentanenitrile]
6.00 to 7.00	CC(C)NCCCn1c(Sc2cc3c(cc2I)OCO3)nc2c(N)nccc21 [Compound 52, 2-(6-iodobenzo[d][1,3]dioxol-5-ylthio)-1-(3-(isopropylamino)propyl)-1H-imidazo[4,5-c]pyridin-4-amine]
6.00 to 7.00	CC(C)(C)NCCCn1c(Sc2cc3c(cc2I)OCO3)nc2c(N)nccc21 [Compound 58, 1-(3-(tert-butylamino)propyl)-2-(6-iodobenzo[d][1,3]dioxol-5-ylthio)-1H-imidazo[4,5-c]pyridin-4-amine]
6.00 to 7.00	CCC(CC)NCCCn1c(Sc2cc3c(cc2I)OCO3)nc2c(N)nccc21 [Compound 60, 2-(6-iodobenzo[d][1,3]dioxol-5-ylthio)-1-(3-(pentan-3-ylamino)propyl)-1H-imidazo[4,5-c]pyridin-4-amine]
6.00 to 7.00	CC(C)OCCn1c(Sc2cc3c(cc2Br)OCO3)nc2c(N)nccc21 [Compound 61, 2-(6-bromobenzo[d][1,3]dioxol-5-ylthio)-1-(2-isopropoxyethyl)-1H-imidazo[4,5-c]pyridin-4-amine]
6.00 to 7.00	CC(C)OCCn1c(Sc2cc3c(cc2I)OCO3)nc2c(N)nccc21 [Compound 62, 2-(6-iodobenzo[d][1,3]dioxol-5-ylthio)-1-(2-isopropoxyethyl)-1H-imidazo[4,5-c]pyridin-4-amine]
6.00 to 7.00	NC(=O)CCCn1c(Sc2cc3c(cc2I)OCO3)nc2c(N)nccc21 [Compound 66, 4-(4-amino-2-(6-iodobenzo[d][1,3]dioxol-5-ylthio)-1H-imidazo[4,5-c]pyridin-1-yl)butanamide]
6.00 to 7.00	NC(=O)CCCCn1c(Sc2cc3c(cc2I)OCO3)nc2c(N)nccc21 [Compound 68, 5-(4-amino-2-(6-iodobenzo[d][1,3]dioxol-5-ylthio)-1H-imidazo[4,5-c]pyridin-1-yl)pentanamide]
6.00 to 7.00	NC(=O)CCCCCn1c(Sc2cc3c(cc2I)OCO3)nc2c(N)nccc21 [Compound 70, 6-(4-amino-2-(6-iodobenzo[d][1,3]dioxol-5-ylthio)-1H-imidazo[4,5-c]pyridin-1-yl)hexanamide]
